From US10118916B2, “Modulators of cystic fibrosis transmembrane conductance regulator protein” (AbbVie S.à.r.l., priority 2016, dated 2018)

Key:
[1] = target: T1, F508delCFTR (Homo sapiens, UniProt P13569, DEL508-508); experiment: Cell Surface Expression-Horse Radish Peroxidase (CSE-HRP) assay; format: cell-based; conditions: CFBE41o-F508delCFTR-HRP cells; for EC50: F508delCFTR cell surface expression, luminescence, 18-24 hours at 33° C., highest concentration 20 μM; for Maximum % activity: maximum at any tested concentration, normalized to on-plate positive control (3 μM)
T1 construct: expressed in transfected cells; host or cells: CFBE41o- (human lung derived epithelial cell line), doxycycline-inducible
T1 sequence (P13569 with tags, fused parts or gaps DEL508-508): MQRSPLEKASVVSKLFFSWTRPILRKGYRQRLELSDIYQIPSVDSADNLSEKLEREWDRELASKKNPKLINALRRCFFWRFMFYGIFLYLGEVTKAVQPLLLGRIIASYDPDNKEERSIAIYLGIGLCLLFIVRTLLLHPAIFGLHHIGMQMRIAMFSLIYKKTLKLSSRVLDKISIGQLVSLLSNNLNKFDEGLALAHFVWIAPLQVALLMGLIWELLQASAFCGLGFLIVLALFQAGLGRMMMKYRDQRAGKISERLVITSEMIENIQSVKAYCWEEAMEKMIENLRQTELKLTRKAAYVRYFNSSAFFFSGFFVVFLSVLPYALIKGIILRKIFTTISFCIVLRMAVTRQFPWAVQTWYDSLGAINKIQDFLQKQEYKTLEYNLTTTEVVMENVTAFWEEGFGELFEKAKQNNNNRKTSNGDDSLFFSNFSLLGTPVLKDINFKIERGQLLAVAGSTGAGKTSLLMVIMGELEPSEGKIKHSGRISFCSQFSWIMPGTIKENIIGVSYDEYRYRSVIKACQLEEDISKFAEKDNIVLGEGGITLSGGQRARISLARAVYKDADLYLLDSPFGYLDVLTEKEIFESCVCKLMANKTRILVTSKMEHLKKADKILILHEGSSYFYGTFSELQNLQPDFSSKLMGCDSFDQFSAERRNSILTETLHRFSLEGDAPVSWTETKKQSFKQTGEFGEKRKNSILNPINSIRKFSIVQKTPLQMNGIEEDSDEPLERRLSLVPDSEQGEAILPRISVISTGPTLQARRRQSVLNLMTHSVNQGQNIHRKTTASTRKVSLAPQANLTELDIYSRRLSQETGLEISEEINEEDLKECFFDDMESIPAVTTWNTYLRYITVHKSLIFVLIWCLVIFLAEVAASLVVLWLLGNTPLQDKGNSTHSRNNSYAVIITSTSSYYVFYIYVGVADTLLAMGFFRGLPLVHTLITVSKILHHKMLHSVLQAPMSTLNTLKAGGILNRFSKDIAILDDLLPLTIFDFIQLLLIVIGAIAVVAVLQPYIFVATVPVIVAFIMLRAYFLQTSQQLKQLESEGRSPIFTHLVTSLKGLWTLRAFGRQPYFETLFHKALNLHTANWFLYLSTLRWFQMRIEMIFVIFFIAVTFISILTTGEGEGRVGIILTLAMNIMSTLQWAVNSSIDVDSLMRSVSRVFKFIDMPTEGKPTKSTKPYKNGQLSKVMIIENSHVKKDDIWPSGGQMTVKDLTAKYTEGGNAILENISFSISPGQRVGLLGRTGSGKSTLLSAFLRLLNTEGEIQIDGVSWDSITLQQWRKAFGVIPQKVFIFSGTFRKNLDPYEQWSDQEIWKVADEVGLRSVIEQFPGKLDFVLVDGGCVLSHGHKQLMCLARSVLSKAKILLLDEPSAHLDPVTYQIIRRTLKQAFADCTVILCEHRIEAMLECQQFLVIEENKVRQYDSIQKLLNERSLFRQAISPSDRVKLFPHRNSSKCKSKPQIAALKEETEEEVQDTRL
In short: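 CFBE41o- cells expressing doxycycline-induced (0.5 μg/mL, 72 h at 37 °C) F508delCFTR with HRP in the fourth extracellular loop; compounds 8 points, 3-fold from 20 μM, 18-24 h at 33 °C. Surface HRP measured by luminol luminescence, normalised to DMSO and 3 μM reference corrector; EC50 from variable-slope sigmoidal fit of triplicate plates.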

[2] = target: T2, F508del/F508del CFTR (Homo sapiens, UniProt P13569, DEL508-508); experiment: Transepithelial Clamp Circuit (TECC-24) conductance assay on primary human bronchial epithelial cells (hBE-TECC); format: cell-based; conditions: for EC50: equivalent short circuit current, 18-24 hours at 37° C., with control potentiator; for Maximum % activity: relative to positive control (3 μM) coupled with control potentiator
T2 construct: cells isolated from CF patients with the homozygous mutation; endogenous in cells; host or cells: primary human bronchial epithelial (hBE) cells from F508del/F508del CF patients
T2 sequence (P13569 with tags, fused parts or gaps DEL508-508): as above
Source text: Transepithelial Clamp Circuit on Human Bronchial Epithelial Cells Conductance Assay:
A cell based assay using the primary human bronchial epithelial cells (hBE) was used as a secondary assay to test novel F508delCFTR correctors for their activity on primary hBE cells with F508del/F508del CFTR mutation. The assay used a TECC-24 (Transepithelial Clamp Circuit for 24 wells) instrument that measures the functionality of the mutated channel by measuring the equivalent short circuit current (Ieq) generated by the polarized epithelial cells. The instrument works by measuring the transepithelial potential difference (Vt) and transepithelial resistance (Rt) in an open circuit format, and the Ieq is calculated by using Ohms law (Ieq=Vt/Rt). The assay was run in a 24-well format and all 24-wells were measured at the same time point giving a higher throughput for this assay.
Primary human bronchial epithelial (hBE) cells from F508del/F508delCFTR patients were expanded from 1×10^6 to 250×10^6 cells (Neuberger T, Burton B, Clark H and VanGoor F; Cystic Fibrosis, Methods in Mole Biol 741; eds. Amaral M D and Kunzelmann K, 2011). For this purpose, cells isolated from CF patients with the homozygous mutation were seeded onto 24 well Corning (Cat #3378) filter plates that were coated with 3T3 conditioned media and grown at an air-liquid interface for 35 days using an Ultroser® G supplemented differentiation media. Apical surface mucus was removed 72 hours before the experiment using 3 mM dithiothreitol (DTT) in phosphate buffered saline (PBS). The apical surface was washed again 24 hours before the experiment using PBS. The cells were incubated with the desired dose response of the corrector compounds 18-24 hours at 37° C., 5% CO2. The corrector compounds are only added on the basolateral side of the epithelial cells.
On the day of measuring the corrector activity on the TECC, the cells were switched into a bicarbonate and serum free F-12 Coon's medium and allowed to equilibrate for 30 minutes in a CO2 free incubator. At the time of measurement, the apical and basolateral sides of the filter were bathed with the F-12 Coon's modification media (with 20 mM 4-(2-hydroxyethyl)-1-piperazineethanesulfonic acid (HEPES), pH 7.4 (using 1 M tris(hydroxymethyl)aminomethane (Tris)), and the measurements were made at 36.5° C. Transepithelial voltage (Vt) and transepithelial resistance (Rt) were measured using a 24 channel transepithelial current clamp (TECC-24). Current responses to the sequential addition of benzamil (apical 6 μM addition; for inhibiting epithelial ENaC channel), forskolin (apical and basolateral 10 μM addition; for activating the CFTR channel), control potentiator (N-(3-carbamoyl-5,5,7,7-tetramethyl-4,7-dihydro-5H-thieno[2,3-c]pyran-2-yl)-1H-pyrazole-5-carboxamide; apical and basolateral 1 μM addition; for potentiating the CFTR channel) and bumetanide (basolateral 20 μM addition; for inhibiting the Na:2Cl:K co-transporter, an indirect measure of inhibiting the Cl— secretion driven by CFTR channel) were measured.
All plates contained negative controls (dimethyl sulfoxide, DMSO) which coupled with the control potentiator (N-(3-carbamoyl-5,5,7,7-tetramethyl-4,7-dihydro-5H-thieno[2,3-c]pyran-2-yl)-1H-pyrazole-5-carboxamide) sets the null response and positive controls (3 μM of 3-[(2R,4R)-4-({[1-(2,2-difluoro-1,3-benzodioxol-5-yl)cyclopropyl]carbonyl}amino)-7-methoxy-3,4-dihydro-2H-chromen-2-yl]benzoic acid) coupled with the control potentiator sets the 100% response to measure the correction of the mutated CFTR channel. The maximum percent activity is reported relative to the positive control value.
The % activity measured at each of the 6 test concentrations of the test compound was normalized to the on-plate positive control using the following formula: % activity=[(test compound response−DMSO response)/(positive control response−DMSO response)]*100 […]

SMILES | EC50 [1] | Maximum % activity [1] | EC50 [2] | Maximum % activity [2]
COc1ccc2c(c1)O[C@@H](c1cccc(C(=O)O)c1)C[C@H]2NC(=O)[C@@]1(C)CCc2cc(C)ccc21 (single isomer, unassigned) [Example 8] | 100 nM | 91.3% | 24 nM | 85.6%
COc1ccc2c(c1)O[C@@H]([C@H]1CC[C@H](C(=O)O)CC1)C[C@H]2NC(=O)C1(c2ccc3c(c2)OC(F)(F)O3)CC1 [Example 11, trans-4-[(2R,4R)-4-{[1-(2,2-difluoro-2H-1,3-benzodioxol-5-yl)cyclopropane-1-carbonyl]amino}-7-methoxy-3,4-dihydro-2H-1-benzopyran-2-yl]cyclohexane-1-carboxylic acid] | 310 nM | 124.5% | 21 nM | 104.3%
O=C(N[C@@H]1C[C@H]([C@H]2CC[C@H](C(=O)O)CC2)Oc2cc(OC(F)(F)F)ccc21)C1(c2ccc3c(c2)OC(F)(F)O3)CC1 [Example 13, trans-4-[(2R,4R)-4-{[1-(2,2-difluoro-2H-1,3-benzodioxol-5-yl)cyclopropane-1-carbonyl]amino}-7-(trifluoromethoxy)-3,4-dihydro-2H-1-benzopyran-2-yl]cyclohexane-1-carboxylic acid] | 30 nM | 124.0% | 4 nM | 117.5%
O=C(N[C@@H]1C[C@H]([C@H]2CC[C@@H](C(=O)O)CC2)Oc2cc(OC(F)F)ccc21)C1(c2ccc3c(c2)OC(F)(F)O3)CC1 [Example 15A, cis-4-[(2R,4R)-4-{[1-(2,2-difluoro-2H-1,3-benzodioxol-5-yl)cyclopropane-1-carbonyl]amino}-7-(difluoromethoxy)-3,4-dihydro-2H-1-benzopyran-2-yl]cyclohexane-1-carboxylic acid] | 530 nM | 94.7% | 573 nM | 92.0%
COc1ccc(C2(C(=O)N[C@@H]3C[C@H](c4ccc(C(=O)O)cc4)Oc4cc(OC)ccc43)CCCC2)cc1 [Example 114, 4-[(2R,4R)-7-methoxy-4-{[1-(4-methoxyphenyl)cyclopentane-1-carbonyl]amino}-3,4-dihydro-2H-1-benzopyran-2-yl]benzoic acid] | > 20000 nM | 2.2% | – | –
COc1ccc(C2(C(=O)N[C@@H]3C[C@H](c4ccc(C(=O)O)cc4)Oc4cc(OC)ccc43)CCC2)cc1 [Example 115, 4-[(2R,4R)-7-methoxy-4-{[1-(4-methoxyphenyl)cyclobutane-1-carbonyl]amino}-3,4-dihydro-2H-1-benzopyran-2-yl]benzoic acid] | 630 nM | 69.8% | – | –
COc1ccc2c(c1)O[C@@H](c1cccc(C(=O)O)c1)C[C@H]2NC(=O)C1(C)CCc2cc(C)ccc21 (stereo partly drawn) [Example 122, 3-{(2R,4R)-4-[(1,5-dimethyl-2,3-dihydro-1H-indene-1-carbonyl)amino]-7-methoxy-3,4-dihydro-2H-1-benzopyran-2-yl}benzoic acid] | 310 nM | 86.2% | – | –
COC(=O)c1ccc([C@H]2C[C@@H](NC(=O)C3(C)CCc4cc(C)ccc43)c3ccc(OC)cc3O2)cc1 (stereo partly drawn) [Example 124, methyl 4-{(2R,4R)-4-[(1,5-dimethyl-2,3-dihydro-1H-indene-1-carbonyl)amino]-7-methoxy-3,4-dihydro-2H-1-benzopyran-2-yl}benzoate] | 460 nM | 87.7% | – | –

The remaining lines, values ahead:

EC50 [1] | Maximum % activity [1] | EC50 [2] | Maximum % activity [2] | SMILES
840 nM | 47.7% | – | – | COc1ccc2c(c1)O[C@@H](c1ccc(C(=O)O)cc1)C[C@H]2NC(=O)C(C)(C)c1ccc(F)cc1 [Example 111, 4-{(2R,4R)-4-[2-(4-fluorophenyl)-2-methylpropanamido]-7-methoxy-3,4-dihydro-2H-1-benzopyran-2-yl}benzoic acid]
360 nM | 59.9% | – | – | COc1ccc2c(c1)O[C@@H](c1ccc(C(=O)O)cc1)C[C@H]2NC(=O)C(C)(C)c1ccc2c(c1)OCCO2 [Example 112, 4-{(2R,4R)-4-[2-(2,3-dihydro-1,4-benzodioxin-6-yl)-2-methylpropanamido]-7-methoxy-3,4-dihydro-2H-1-benzopyran-2-yl}benzoic acid]
60 nM | 43.5% | – | – | COc1ccc2c(c1)O[C@@H](c1ccc(C(=O)O)cc1)C[C@H]2NC(=O)C(C)(C)c1ccc(OC)c(F)c1 [Example 113, 4-{(2R,4R)-4-[2-(3-fluoro-4-methoxyphenyl)-2-methylpropanamido]-7-methoxy-3,4-dihydro-2H-1-benzopyran-2-yl}benzoic acid]
3250 nM | 27.6% | – | – | COc1ccc2c(c1)O[C@@H](c1ccc(C(=O)O)cc1)C[C@H]2NC(=O)C1(c2ccc(OC)c(OC)c2)CCC1 [Example 116, 4-[(2R,4R)-4-{[1-(3,4-dimethoxyphenyl)cyclobutane-1-carbonyl]amino}-7-methoxy-3,4-dihydro-2H-1-benzopyran-2-yl]benzoic acid]
350 nM | 47.0% | – | – | COc1ccc(C(C)(C)C(=O)N[C@@H]2C[C@H](c3ccc(C(=O)O)cc3)Oc3cc(OC)ccc32)c(F)c1 [Example 117, 4-{(2R,4R)-4-[2-(2-fluoro-4-methoxyphenyl)-2-methylpropanamido]-7-methoxy-3,4-dihydro-2H-1-benzopyran-2-yl}benzoic acid]
> 20000 nM | 16.3% | – | – | COc1ccc2c(c1)O[C@@H](c1ccc(C(=O)O)cc1)C[C@H]2NC(=O)C(C)(C)Oc1ccc(F)cc1 [Example 118, 4-{(2R,4R)-4-[2-(4-fluorophenoxy)-2-methylpropanamido]-7-methoxy-3,4-dihydro-2H-1-benzopyran-2-yl}benzoic acid]
2980 nM | 27.4% | – | – | COc1ccc2c(c1)O[C@@H](c1ccc(C(=O)O)cc1)C[C@H]2NC(=O)C(C)(C)Oc1ccc(Cl)cc1 [Example 119, 4-{(2R,4R)-4-[2-(4-chlorophenoxy)-2-methylpropanamido]-7-methoxy-3,4-dihydro-2H-1-benzopyran-2-yl}benzoic acid]
50 nM | 73.9% | – | – | COc1ccc2c(c1)O[C@@H](c1ccc(C(=O)O)cc1)C[C@H]2NC(=O)C(C)(C)c1ccc2c(c1)OCO2 [Example 120, 4-{(2R,4R)-4-[2-(2H-1,3-benzodioxol-5-yl)-2-methylpropanamido]-7-methoxy-3,4-dihydro-2H-1-benzopyran-2-yl}benzoic acid]
70 nM | 49.6% | – | – | COc1ccc(C(C)(C)C(=O)N[C@@H]2C[C@H](c3ccc(C(=O)O)cc3)Oc3cc(OC)ccc32)cc1 [Example 121, 4-{(2R,4R)-7-methoxy-4-[2-(4-methoxyphenyl)-2-methylpropanamido]-3,4-dihydro-2H-1-benzopyran-2-yl}benzoic acid]
